Experimental data published in patent US20150087687A1 (priority 2012, published 2015).
Read-outs that look alike come from different tables or passages of the source.

Experiments:
[1] = system: hepatic cytochrome P450 (CYP); settings: cited from earlier work
[2] = system: HUVEC; settings: cited from earlier work
[3] = target: NEK9 (Homo sapiens, UniProt Q8TD19); test: targeting of kinases (FIG. 4): NEK9; type: binding
[4] = system: human myeloblastic leukemic cells; settings: cited from earlier work
[5] = system: ECV304; settings: antiangiogenic effects; cited from earlier work
[6] = system: ECV304; settings: cited from earlier work
[7] = system: HL-60 cells; settings: cited from earlier work
[8] = system: NB4; settings: AML; cited from earlier work
[9] = system: cell lines and primary cancer cells; settings: cited from earlier work
[10] = cited from earlier work
[11] = system: Lewis lung sarcoma; settings: mouse, in vivo; cited from earlier work
[12] = system: W256 cells; settings: cited from earlier work
[13] = target: T1, cytochrome P450 1A2 (Homo sapiens, UniProt P05177); test: metabolism by cytochrome P450 1A2; type: in vitro ADME; settings: by oxidation
[14] = system: VEGF; settings: antiangiogenic effects; cited from earlier work
[15] = system: primary AML; settings: cited from earlier work
[16] = cited from earlier work; remark: listed apart in the source
[17] = system: murine cancer models; settings: mouse, in vivo; cited from earlier work
[18] = system: HL-60 myeloid cells; settings: cited from earlier work
[19] = system: microtubule assembly; settings: cited from earlier work
[20] = system: negative cell cycle regulators p21 and p27; settings: induces cell cycle arrest; cited from earlier work
[21] = system: K562; settings: CML; cited from earlier work
[22] = system: K562; settings: cited from earlier work
[23] = system: Walker 256 carcino-sarcoma; settings: in vivo; cited from earlier work
[24] = system: U937; settings: AML; cited from earlier work
[25] = rat; cited from earlier work
[26] = system: HUVEC; settings: antiangiogenic effects; cited from earlier work
[27] = system: primary AML cells; settings: cited from earlier work
[28] = system: AML cells; settings: AML cells (DKO insensitive to chemotherapy); cited from earlier work
[29] = system: malignant cell lines, particularly AML cell lines; test: viability of cancer cell lines (Example 2); type: cell-based; settings: 0.1-100 μM, 24 or 48 hours, FIG. 1-3
Description: Viability at 48 hours is shown by (♦); viability at 24 hours is shown by (▪).

[30] = system: Jurkat cells; settings: inducing phosphorylation of c-Myb; cited from earlier work
[31] = system: AML cell lines; settings: cited from earlier work
[32] = target: cytochrome P450 2C19 (Homo sapiens, UniProt P33261); test: metabolism by cytochrome P450 2C19; type: in vitro ADME; settings: by oxidation
[33] = system: mitochondria; settings: effects on mitochondria; cited from earlier work
[34] = system: VCAM-1; settings: antiangiogenic effects; cited from earlier work
[35] = target: STK25 (Homo sapiens, UniProt O00506); test: targeting of kinases (FIG. 4): STK25; type: binding
[36] = system: chronic myelogenous leukemia (CML); settings: cited from earlier work
[37] = cited from earlier work; remark: listed apart in the source
[38] = system: HL-60; settings: AML; cited from earlier work
[39] = system: AML NOD/SCID model; settings: cited from earlier work
[40] = system: HT-29 colorectal cell lines; settings: cited from earlier work
[41] = rats; cited from earlier work
[42] = system: K562 cells; settings: cited from earlier work
[43] = target: T1, cytochrome P450 1A2; test: inhibition of cytochrome P450 1A2; type: in vitro ADME
[44] = system: Bcl-2; settings: induces apoptosis; cited from earlier work
[45] = target: glycogen synthase kinase-3β (GSK-3β) (Homo sapiens, UniProt P49841); settings: concentration at which inhibition is stated; cited from earlier work
[46] = system: CD11b; settings: promoting myeloid differentiation; cited from earlier work
[47] = cited from earlier work; remark: listed apart in the source
[48] = target: ERBB3 (Homo sapiens, UniProt P21860); test: targeting of kinases (FIG. 4): ERBB3; type: binding
[49] = system: HT-29 colorectal xenografts; settings: mouse, in vivo; cited from earlier work
[50] = system: uridine glucuronyltransferases (UGT); test: metabolism by uridine glucuronyltransferases; type: in vitro ADME; settings: direct conjugation, without initial cytochrome P450 oxidation; more polar metabolites
[51] = cited from earlier work; remark: listed apart in the source
[52] = target: cytochrome P450 2C8 (Homo sapiens, UniProt P10632); test: inhibition of cytochrome P450 2C8; type: in vitro ADME
Sequence of cytochrome P450 2C8 (P10632 whole entry): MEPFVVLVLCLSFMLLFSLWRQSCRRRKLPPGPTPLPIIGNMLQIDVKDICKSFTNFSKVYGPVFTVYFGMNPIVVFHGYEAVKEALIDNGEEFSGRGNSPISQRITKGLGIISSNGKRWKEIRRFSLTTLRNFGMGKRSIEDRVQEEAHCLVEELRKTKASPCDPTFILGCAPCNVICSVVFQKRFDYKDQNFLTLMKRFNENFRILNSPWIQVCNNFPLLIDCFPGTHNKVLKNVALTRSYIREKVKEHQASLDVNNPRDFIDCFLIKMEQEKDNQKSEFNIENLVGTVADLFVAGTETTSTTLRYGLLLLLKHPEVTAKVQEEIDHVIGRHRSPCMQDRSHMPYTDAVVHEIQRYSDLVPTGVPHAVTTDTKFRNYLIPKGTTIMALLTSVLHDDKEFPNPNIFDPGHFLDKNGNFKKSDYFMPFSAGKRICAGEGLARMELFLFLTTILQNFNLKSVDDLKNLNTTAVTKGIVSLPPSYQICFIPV

T1 sequence (P05177 whole entry): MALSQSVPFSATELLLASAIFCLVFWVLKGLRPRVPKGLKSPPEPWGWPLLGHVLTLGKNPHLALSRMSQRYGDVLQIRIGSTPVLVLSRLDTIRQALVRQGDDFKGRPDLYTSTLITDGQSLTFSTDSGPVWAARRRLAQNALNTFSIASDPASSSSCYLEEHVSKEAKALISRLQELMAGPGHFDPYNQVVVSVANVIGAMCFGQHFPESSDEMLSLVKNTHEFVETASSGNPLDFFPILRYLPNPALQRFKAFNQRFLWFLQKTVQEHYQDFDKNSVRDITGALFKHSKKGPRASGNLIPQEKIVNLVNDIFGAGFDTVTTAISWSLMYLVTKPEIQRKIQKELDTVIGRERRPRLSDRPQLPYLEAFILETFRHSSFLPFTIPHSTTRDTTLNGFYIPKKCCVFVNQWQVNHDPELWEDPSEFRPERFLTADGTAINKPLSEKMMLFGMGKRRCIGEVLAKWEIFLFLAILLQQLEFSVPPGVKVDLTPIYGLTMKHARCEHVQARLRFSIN
Sequence of ERBB3 (P21860 20-1342, species assumed): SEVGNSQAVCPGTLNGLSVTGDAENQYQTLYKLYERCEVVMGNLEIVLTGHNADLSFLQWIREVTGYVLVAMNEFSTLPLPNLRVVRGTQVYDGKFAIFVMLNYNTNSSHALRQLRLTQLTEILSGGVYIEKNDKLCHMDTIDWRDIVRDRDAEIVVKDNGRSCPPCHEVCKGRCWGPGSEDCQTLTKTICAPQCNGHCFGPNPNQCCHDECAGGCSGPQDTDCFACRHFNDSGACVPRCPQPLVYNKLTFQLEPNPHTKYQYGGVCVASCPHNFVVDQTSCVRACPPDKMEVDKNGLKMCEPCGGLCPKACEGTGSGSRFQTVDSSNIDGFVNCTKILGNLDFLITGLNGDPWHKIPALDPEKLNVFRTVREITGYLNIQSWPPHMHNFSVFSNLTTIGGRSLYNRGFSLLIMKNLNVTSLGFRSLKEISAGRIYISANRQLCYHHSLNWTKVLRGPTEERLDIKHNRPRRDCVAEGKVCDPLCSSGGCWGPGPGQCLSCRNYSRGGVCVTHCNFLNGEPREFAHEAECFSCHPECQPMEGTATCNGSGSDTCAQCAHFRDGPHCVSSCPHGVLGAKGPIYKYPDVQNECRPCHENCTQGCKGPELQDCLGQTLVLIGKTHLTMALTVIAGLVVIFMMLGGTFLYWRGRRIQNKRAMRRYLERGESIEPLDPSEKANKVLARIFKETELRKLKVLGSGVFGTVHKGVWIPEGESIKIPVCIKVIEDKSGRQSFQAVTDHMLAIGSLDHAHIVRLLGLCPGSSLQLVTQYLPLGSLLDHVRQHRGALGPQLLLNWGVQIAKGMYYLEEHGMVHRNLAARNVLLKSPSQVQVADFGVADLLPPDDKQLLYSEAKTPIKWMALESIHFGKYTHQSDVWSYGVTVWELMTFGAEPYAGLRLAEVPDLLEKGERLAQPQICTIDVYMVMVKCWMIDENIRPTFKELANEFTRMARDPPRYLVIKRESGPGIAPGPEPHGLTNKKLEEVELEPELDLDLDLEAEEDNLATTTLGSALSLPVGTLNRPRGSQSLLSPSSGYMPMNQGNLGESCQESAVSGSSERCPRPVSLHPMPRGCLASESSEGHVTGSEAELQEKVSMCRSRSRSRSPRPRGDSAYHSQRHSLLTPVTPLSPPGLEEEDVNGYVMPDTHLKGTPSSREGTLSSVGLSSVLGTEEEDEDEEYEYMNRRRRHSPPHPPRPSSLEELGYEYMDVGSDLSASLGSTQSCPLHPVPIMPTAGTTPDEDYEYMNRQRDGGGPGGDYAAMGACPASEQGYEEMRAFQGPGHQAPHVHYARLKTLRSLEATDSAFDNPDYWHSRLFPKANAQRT
Sequence of STK25 (O00506 whole entry, species assumed): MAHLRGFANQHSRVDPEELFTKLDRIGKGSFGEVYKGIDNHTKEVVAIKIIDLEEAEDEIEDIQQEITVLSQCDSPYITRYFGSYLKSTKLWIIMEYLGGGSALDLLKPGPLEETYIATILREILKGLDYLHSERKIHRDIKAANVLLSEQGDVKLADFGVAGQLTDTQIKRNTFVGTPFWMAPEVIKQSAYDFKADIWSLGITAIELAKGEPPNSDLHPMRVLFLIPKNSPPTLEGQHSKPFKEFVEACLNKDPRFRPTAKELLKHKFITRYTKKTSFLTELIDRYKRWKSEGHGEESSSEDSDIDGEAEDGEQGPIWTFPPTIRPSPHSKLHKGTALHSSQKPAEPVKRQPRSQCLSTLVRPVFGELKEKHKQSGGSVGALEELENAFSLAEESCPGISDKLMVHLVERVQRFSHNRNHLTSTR
Sequence of glycogen synthase kinase-3β (GSK-3β) (P49841 whole entry, species assumed): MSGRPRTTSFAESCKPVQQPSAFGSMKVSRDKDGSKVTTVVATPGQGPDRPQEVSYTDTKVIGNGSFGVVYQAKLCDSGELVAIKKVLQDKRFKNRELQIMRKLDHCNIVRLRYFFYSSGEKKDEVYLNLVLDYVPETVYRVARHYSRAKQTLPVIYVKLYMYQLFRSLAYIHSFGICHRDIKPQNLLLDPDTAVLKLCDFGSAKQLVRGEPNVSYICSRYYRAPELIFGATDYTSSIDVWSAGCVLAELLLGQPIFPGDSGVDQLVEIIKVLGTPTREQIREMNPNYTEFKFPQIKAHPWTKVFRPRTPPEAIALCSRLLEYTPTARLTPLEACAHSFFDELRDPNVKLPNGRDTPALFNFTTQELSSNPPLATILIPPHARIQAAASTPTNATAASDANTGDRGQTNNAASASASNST
Sequence of cytochrome P450 2C19 (P33261 whole entry): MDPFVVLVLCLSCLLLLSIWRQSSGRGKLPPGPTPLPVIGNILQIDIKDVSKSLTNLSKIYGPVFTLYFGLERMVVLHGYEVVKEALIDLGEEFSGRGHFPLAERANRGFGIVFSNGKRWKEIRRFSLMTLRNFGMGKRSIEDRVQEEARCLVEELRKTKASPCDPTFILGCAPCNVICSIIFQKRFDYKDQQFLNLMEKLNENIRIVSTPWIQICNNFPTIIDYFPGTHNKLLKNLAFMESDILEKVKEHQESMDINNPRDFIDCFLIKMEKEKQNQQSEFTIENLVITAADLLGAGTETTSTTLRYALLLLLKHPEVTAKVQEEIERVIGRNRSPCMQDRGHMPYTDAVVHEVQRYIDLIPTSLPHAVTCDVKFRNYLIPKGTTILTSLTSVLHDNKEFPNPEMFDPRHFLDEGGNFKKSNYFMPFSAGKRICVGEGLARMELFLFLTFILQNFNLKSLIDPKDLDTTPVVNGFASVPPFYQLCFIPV
Sequence of NEK9 (Q8TD19 whole entry, species assumed): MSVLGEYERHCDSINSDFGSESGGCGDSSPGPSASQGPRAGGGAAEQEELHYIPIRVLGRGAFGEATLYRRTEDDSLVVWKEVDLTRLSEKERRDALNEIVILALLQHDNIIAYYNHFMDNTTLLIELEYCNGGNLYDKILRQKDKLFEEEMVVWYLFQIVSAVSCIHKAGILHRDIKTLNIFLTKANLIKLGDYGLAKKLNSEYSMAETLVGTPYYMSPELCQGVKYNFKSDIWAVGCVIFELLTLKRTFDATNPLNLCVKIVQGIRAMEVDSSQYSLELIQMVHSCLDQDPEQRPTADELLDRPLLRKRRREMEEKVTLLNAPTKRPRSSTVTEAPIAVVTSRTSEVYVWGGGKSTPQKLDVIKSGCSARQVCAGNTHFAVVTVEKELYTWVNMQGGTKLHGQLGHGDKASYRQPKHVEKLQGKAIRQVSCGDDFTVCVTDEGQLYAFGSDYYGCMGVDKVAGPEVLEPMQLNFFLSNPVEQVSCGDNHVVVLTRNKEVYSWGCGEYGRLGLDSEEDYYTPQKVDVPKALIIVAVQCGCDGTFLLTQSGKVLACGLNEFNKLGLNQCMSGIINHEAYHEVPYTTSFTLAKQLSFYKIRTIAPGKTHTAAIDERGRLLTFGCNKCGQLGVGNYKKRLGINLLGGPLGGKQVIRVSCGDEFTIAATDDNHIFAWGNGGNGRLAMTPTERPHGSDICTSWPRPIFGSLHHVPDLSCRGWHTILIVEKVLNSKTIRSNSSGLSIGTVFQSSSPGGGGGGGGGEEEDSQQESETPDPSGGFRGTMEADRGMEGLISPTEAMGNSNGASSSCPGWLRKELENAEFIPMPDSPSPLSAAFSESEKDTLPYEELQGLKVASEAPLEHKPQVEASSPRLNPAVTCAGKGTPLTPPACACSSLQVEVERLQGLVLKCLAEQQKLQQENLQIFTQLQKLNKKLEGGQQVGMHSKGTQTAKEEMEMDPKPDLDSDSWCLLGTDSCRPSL

For `CN1C(=O)/C(=C2/C(=O)Nc3ccccc32)c2ccccc21` [meisoindigo, 3-(1,2-dihydro-2-oxo-3H-indol-3-ylidene)-1,3-dihydro-1-methyl-2H-indol-2-one], the “sex differences in metabolism” value [1] is given as “no sex differences”, the metabolic routes ([1]; hepatic cytochrome P450 (CYP)-mediated) is given as “N-demethylation and mono ring hydroxylation” and the “interspecies differences in metabolism” value ([1]; rats, pigs, and humans) is given as “no major interspecies differences”. For the same compound, the “activity against HUVEC” value [2] was “activity”, the “binding with NEK9” value [3] was “strongest binding” and the c-myb gene expression [4] was “downregulation”. The differentiation [4] was “promotes differentiation”, the ECV304 apoptosis [5] was “apoptosis” and the “activity against ECV304” value [6] was “activity”. For the same compound, the c-myc [7] was “decreases”, the β-catenin [7] was “decreases” and the “activity against NB4” value [8] was “activity”. For the same compound, the IC50 ([9]; cell lines and primary cancer cells) was “high-μM concentration range”, the “active against cell lines and primary cancer cells” value [9] was “active” and the “human hepatic internal CL (Clint)” value [10] was about 83 mL/mg/kg. The “efficacy in Lewis lung sarcoma” value [11] was “effective”, the DNA synthesis [12] was “inhibition” and the RNA synthesis [12] was “inhibition”. The “metabolized by cytochrome P450 1A2” value [13] was “metabolized”, the VEGF protection [14] was “decreased” and the “activity against primary AML” value [15] was “activity”. For the same compound, the absorption ([16]; in vivo) was “rapidly absorbed”, the distribution ([16]; in vivo) was “widely distributed in the tissues” and the excretion ([16]; renal and biliary routes) was “renal excretion strongly predominating”. For the same compound, the “efficacy in murine cancer models” value [17] was “effective”, the “cleavage of PARP” value [18] was “stimulates the cleavage” and the “cleavage of pro-caspase 3” value [18] was “stimulates the cleavage”. For the same compound, the “cleavage of pro-caspase 8” value [18] was “stimulates the cleavage”, the “cleavage of pro-caspase 9” value [18] was “stimulates the cleavage” and the microtubule assembly [19] was “inhibition”. For the same compound, the p21 [20] was “upregulation”, the p27 [20] was “upregulation” and the “activity against K562” value [21] was “activity”. For the same compound, the c-myc [22] was “not”, the “efficacy in Walker 256 carcino-sarcoma” value [23] was “effective” and the “activity against U937” value [24] was “activity”. The target organs [25] was “liver and the gastrointestinal tract”, the “tubule formulation in HUVEC” value [26] was “decreased” and the Bcl-2 [27] was “downregulation”. The p21 [27] was “upregulation”, the p27 [27] was “upregulation” and the Bak [28] was “upregulation”. For the same compound, the Bax [28] was “upregulation”, the “killing of malignant cell lines” value [29] was “effective in killing” and the Ahi-1 [30] was “upregulation”. The “cell cycle specific effect” value [31] was “arrest in G(O)/G1”, the “metabolized by cytochrome P450 2C19” value [32] was “metabolized” and the Bax protein expression [33] was “no change”. The Bcl-2 protein expression [33] was “no change”, the Bid protein expression [33] was “no change” and the VCAM-1 [34] was “decreased”. For the same compound, the “binding with STK25” value [35] was “significant binding”, the complete hematologic response ([36]; 50-200 mg/d p.o.) was 33 % of patients and the partial hematologic response ([36]; 50-200 mg/d p.o.) was 58 % of patients. For the same compound, the “reduction of leukocyte count (median)” value ([36]; 50-200 mg/d p.o.) was 31 days, the “reduction of splenomegaly (median)” value ([36]; 50-200 mg/d p.o.) was 25 days and the effect with hydroxyurea ([36]; combination with hydroxyurea) was “synergistic effect”. The water solubility [37] was “water-soluble”, the “activity against HL-60” value [38] was “activity” and the spleen size ([39]; AML NOD/SCID model) was “dose-dependent spleen size reduction”. The “efficacy in AML NOD/SCID model” value ([39]; mouse, in vivo) was “effective”, the “cell cycle specific effect” value [40] was “G2/M arrest” and the “single dose LD50” value [41] was 3900 mg/kg. For the same compound, the apoptosis mechanism [42] was “novel caspase-dependent pathway”, the “inhibits cytochrome P450 1A2 at” value [43] was “low micromolar concentrations” and the Bcl-2 [44] was “suppression”. For the same compound, the “inhibition of GSK-3β at” value [45] was 5 to 50 nM, the CD11b [46] was “upregulation” and the target organs ([47]; dog) was “liver and the gastrointestinal tract”. For the same compound, the well tolerated dose ([47]; dogs, p.o. for 6 months) was 10 mg/kg/day, the “binding with ERBB3” value [48] was “significant binding” and the “efficacy in HT-29 colorectal xenografts” value [49] was “effective”. The “metabolized by UGT” value [50] was “metabolized”, the “mild nausea and vomiting” value ([51]; clinical trials, single agent or in combination with chemotherapy) was 30% and the “cardiac, hepatic, or renal adverse effects” value ([51]; clinical trials) was “no cardiac, hepatic, or renal adverse effects”. For the same compound, the “course of nausea and vomiting” value ([51]; clinical trials) was “spontaneously disappeared in two weeks”, the tolerability ([51]; several patient populations) was “well tolerated” and the “inhibits cytochrome P450 2C8 at” value [52] was “low micromolar concentrations”.
